Experimental data as given in patent US20200016136A1 (VIIV HEALTHCARE UK (NO. 5) LIMITED, priority 2017, published 2020).

System: NL-RLuc virus (recombinant NL4-3 HIV with Renilla Luciferase gene)
Assay: Inhibition of HIV replication (NL-RLuc virus in MT-2 cells, luciferase readout)
Assay type: cell-based, Human immunodeficiency virus (HIV)
Settings: MT2, 120 h
Procedure, shortened: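 MT-2 cells infected with NL4-3-derived virus carrying Renilla luciferase in place of part of nef, grown 5 days with serial compound dilutions in RPMI 1640/10% FBS. Virus growth read as luciferase expression. EC50 from median effect equation, at least 2 experiments.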

| SMILES | EC50 |
| --- | --- |
| Cc1nc(NC2CCN(C)CC2)c(-c2ccc3c(c2)CCN(c2ncnc4c2oc2ccccc24)C3)c(N2CCC(C)(C)CC2)c1[C@H](OC(C)(C)C)C(=O)O [Example 12, (S)-2-(5-(2-(Benzofuro[3,2-d]pyrimidin-4-yl)-1,2,3,4-tetrahydroisoquinolin-6-yl)-4-(4,4-dimethylpiperidin-1-yl)-2-methyl-6-((1-methylpiperidin-4-yl)amino)pyridin-3-yl)-2-(tert-butoxy)acetic Acid] | 1 nM |
| Cc1cccc(Cl)c1CN1CCc2cc(-c3c(CO)ncc([C@H](OC(C)(C)C)C(=O)O)c3N3CCC(C)(C)CC3)ccc2C1 [Example 117, (S)-2-(tert-Butoxy)-2-(5-(2-(2-chloro-6-methylbenzyl)-1,2,3,4-tetrahydroisoquinolin-6-yl)-4-(4,4-dimethylpiperidin-1-yl)-6-(hydroxymethyl)pyridin-3-yl)acetic Acid] | 1 nM |
| Cc1ncc(-c2ccc3c(c2)CCN(c2ncnc4c2oc2ccccc24)C3)c(N2CCC(C)(C)CC2)c1[C@H](OC(C)(C)C)C(=O)O [Example 49, (2S)-2-(tert-Butoxy)-2-[4-(4,4-dimethylpiperidin-1-yl)-2-methyl-5-(2-{8-oxa-3,5-diazatricyclo[7.4.0.0^2,7]trideca-1(9),2(7),3,5,10,12-hexaen-6-yl}-1,2,3,4-tetrahydroisoquinolin-6-yl)pyridin-3-yl]acetic Acid] | 1 nM |
| Cc1cccc(Cl)c1CN1CCc2cc(-c3cnc(Cl)c([C@H](OC(C)(C)C)C(=O)O)c3N3CCC(C)(C)CC3)ccc2C1 [Example 102, (S)-2-(tert-Butoxy)-2-(2-chloro-5-(2-(2-chloro-6-methylbenzyl)-1,2,3,4-tetrahydroisoquinolin-6-yl)-4-(4,4-dimethylpiperidin-1-yl)pyridin-3-yl)acetic Acid] | 8 nM |
| Cc1nc(C)c([C@H](OC(C)(C)C)C(=O)O)c(N2CCC(C)(C)CC2)c1-c1ccc2c(c1)CCN(c1ncnc(N3CCOCC3)c1C)C2 [Example 77, (S)-2-(tert-Butoxy)-2-(4-(4,4-dimethylpiperidin-1-yl)-2,6-dimethyl-5-(2-(5-methyl-6-morpholinopyrimidin-4-yl)-1,2,3,4-tetrahydroisoquinolin-6-yl)pyridin-3-yl)acetic Acid] | 0.6 nM |
| Cc1nc(C#N)c(-c2ccc3c(c2)CCN(c2ncnc4c2oc2ccccc24)C3)c(N2CCC(C)(C)CC2)c1[C@H](OC(C)(C)C)C(=O)O [Example 50] | 4 nM |
| Cc1nc(C)c([C@H](OC(C)(C)C)C(=O)O)c(N2CCC(C)(C)CC2)c1-c1ccc2c(c1)CCN(c1ccnc(N3C[C@@H](C)O[C@@H](C)C3)n1)C2 [Example 27, (2S)-2-(tert-Butoxy)-2-[5-(2-{2-[(2R,6S)-2,6-dimethylmorpholin-4-yl]pyrimidin-4-yl}-1,2,3,4-tetrahydroisoquinolin-6-yl)-4-(4,4-dimethylpiperidin-1-yl)-2,6-dimethylpyridin-3-yl]acetic Acid] | 2 nM |
| Cc1nc(C)c([C@H](OC(C)(C)C)C(=O)O)c(N2CCC(C)(C)CC2)c1-c1ccc2c(c1)CCN(c1nccc(O)n1)C2 [Example 80, (S)-2-(tert-Butoxy)-2-(4-(4,4-dimethylpiperidin-1-yl)-5-(2-(4-hydroxypyrimidin-2-yl)-1,2,3,4-tetrahydroisoquinolin-6-yl)-2,6-dimethylpyridin-3-yl)acetic Acid] | 380 nM |
| Cc1nc(C)c([C@H](OC(C)(C)C)C(=O)O)c(N2CCC(C)(C)CC2)c1-c1ccc2c(c1)CCN(c1nccc(N(C)C)n1)C2 [Example 17, (2S)-2-(tert-Butoxy)-2-(5-{2-[4-(dimethylamino)pyrimidin-2-yl]-1,2,3,4-tetrahydroisoquinolin-6-yl}-4-(4,4-dimethylpiperidin-1-yl)-2,6-dimethylpyridin-3-yl)acetic Acid] | 1 nM |
| COc1ccccc1-c1cc(N2CCc3cc(-c4c(C)nc(C)c([C@H](OC(C)(C)C)C(=O)O)c4N4CCC(C)(C)CC4)ccc3C2)ncn1 [Example 123, (S)-2-(tert-Butoxy)-2-(4-(4,4-dimethylpiperidin-1-yl)-5-(2-(6-(2-methoxyphenyl)pyrimidin-4-yl)-1,2,3,4-tetrahydroisoquinolin-6-yl)-2,6-dimethylpyridin-3-yl)acetic Acid] | 11 nM |
| Cc1cccc(Cl)c1CN1CCc2cc(-c3c(CNCCCCCc4ccccc4)nc(C)c([C@H](OC(C)(C)C)C(=O)O)c3N3CCC(C)(C)CC3)ccc2C1 [Example 156, (S)-2-(tert-Butoxy)-2-(5-(2-(2-chloro-6-methylbenzyl)-1,2,3,4-tetrahydroisoquinolin-6-yl)-4-(4,4-dimethylpiperidin-1-yl)-2-methyl-6-(((5-phenylpentyl)amino)methyl)pyridin-3-yl)acetic Acid] | 65 nM |
| Cc1nc(C)c([C@H](OC(C)(C)C)C(=O)O)c(N2CCC(C)(C)CC2)c1-c1ccc2c(c1)CCN(c1ccnc(N3CCC3)n1)C2 [Example 18, (2S)-2-(5-{2-[2-(Azetidin-1-yl)pyrimidin-4-yl]-1,2,3,4-tetrahydroisoquinolin-6-yl}-4-(4,4-dimethylpiperidin-1-yl)-2,6-dimethylpyridin-3-yl)-2-(tert-butoxy)acetic Acid] | 1 nM |
| Cc1nc(C)c([C@H](OC(C)(C)C)C(=O)O)c(N2CCC(C)(C)CC2)c1-c1ccc2c(c1)CCN(c1nccc(N3C[C@@H](C)N(C)[C@@H](C)C3)n1)C2 [Example 41, (2S)-2-(tert-Butoxy)-2-[4-(4,4-dimethylpiperidin-1-yl)-2,6-dimethyl-5-(2-{4-[(3R,5S)-3,4,5-trimethylpiperazin-1-yl]pyrimidin-2-yl}-1,2,3,4-tetrahydroisoquinolin-6-yl)pyridin-3-yl]acetic Acid] | 3 nM |
| Cc1cccc(Cl)c1CN1CCc2cc(-c3c(O)nc(C)c([C@H](OC(C)(C)C)C(=O)O)c3N3CCC(C)(C)CC3)ccc2C1 [Example 1, (S)-2-(tert-Butoxy)-2-(5-(2-(2-chloro-6-methylbenzyl)-1,2,3,4-tetrahydroisoquinolin-6-yl)-4-(4,4-dimethylpiperidin-1-yl)-2-methyl-6-oxo-1,6-dihydropyridin-3-yl)acetic Acid] | 10 nM |
| CC1(C)CCN(c2c(-c3ccc4c(c3)CCN(c3ncnc5c3oc3ccccc35)C4)c(CNCCS(C)(=O)=O)nc(Cl)c2[C@H](OC(C)(C)C)C(=O)O)CC1 [Example 110, (S)-2-(5-(2-(Benzofuro[3,2-d]pyrimidin-4-yl)-1,2,3,4-tetrahydroisoquinolin-6-yl)-2-chloro-4-(4,4-dimethylpiperidin-1-yl)-6-(((2-(methylsulfonyl)ethyl)amino)methyl)pyridin-3-yl)-2-(tert-butoxy)acetic Acid] | 110 nM |
| Cc1nc(C)c([C@H](OC(C)(C)C)C(=O)O)c(N2CCC(C)(C)CC2)c1-c1ccc2c(c1)CCN(c1cc(N3CCC(C(C)(C)O)CC3)ncc1F)C2 [Example 104, (S)-2-(tert-Butoxy)-2-(4-(4,4-dimethylpiperidin-1-yl)-5-(2-(5-fluoro-2-(4-(2-hydroxypropan-2-yl)piperidin-1-yl)pyridin-4-yl)-1,2,3,4-tetrahydroisoquinolin-6-yl)-2,6-dimethylpyridin-3-yl)acetic Acid] | 10 nM |
| CC1(C)CCN(c2c(-c3ccc4c(c3)CCN(c3nccc(N5CCC(C(C)(C)O)CC5)n3)C4)cnc(Cl)c2[C@H](OC(C)(C)C)C(=O)O)CC1 [Example 93, (S)-2-(tert-Butoxy)-2-(2-chloro-4-(4,4-dimethylpiperidin-1-yl)-5-(2-(4-(4-(2-hydroxypropan-2-yl)piperidin-1-yl)pyrimidin-2-yl)-1,2,3,4-tetrahydroisoquinolin-6-yl)pyridin-3-yl)acetic Acid] | 8 nM |
| Cc1nc(C)c([C@H](OC(C)(C)C)C(=O)O)c(N2CCC(C)(C)CC2)c1-c1ccc2c(c1)CCN(c1ncnc(N3CCC(CCO)CC3)n1)C2 [Example 63, (S)-2-(tert-Butoxy)-2-(4-(4,4-dimethylpiperidin-1-yl)-5-(2-(4-(4-(2-hydroxyethyl)piperidin-1-yl)-1,3,5-triazin-2-yl)-1,2,3,4-tetrahydroisoquinolin-6-yl)-2,6-dimethylpyridin-3-yl)acetic Acid] | 4 nM |
| Cc1cccc(Cl)c1CN1CCc2cc(-c3c(NCCn4cccn4)nc(C)c([C@H](OC(C)(C)C)C(=O)O)c3N3CCC(C)(C)CC3)ccc2C1 [Example 7, (S)-2-(6-((2-(1H-Pyrazol-1-yl)ethyl)amino)-5-(2-(2-chloro-6-methylbenzyl)-1,2,3,4-tetrahydroisoquinolin-6-yl)-4-(4,4-dimethylpiperidin-1-yl)-2-methylpyridin-3-yl)-2-(tert-butoxy)acetic Acid] | 13 nM |
| Cc1nc(CN2CCC3(CCC3)CC2)c(-c2ccc3c(c2)CCN(c2nccc(-c4cnccn4)n2)C3)c(N2CCC(C)(C)CC2)c1[C@H](OC(C)(C)C)C(=O)O [Example 166, (S)-2-(6-(7-Azaspiro[3.5]nonan-7-ylmethyl)-4-(4,4-dimethylpiperidin-1-yl)-2-methyl-5-(2-(4-(pyrazin-2-yl)pyrimidin-2-yl)-1,2,3,4-tetrahydroisoquinolin-6-yl)pyridin-3-yl)-2-(tert-butoxy)acetic Acid] | 0.6 nM |
| CC1(C)CCN(Cc2nc(Cl)c([C@H](OC(C)(C)C)C(=O)O)c(N3CCC(C)(C)CC3)c2-c2ccc3c(c2)CCN(c2ncnc4c2oc2ncccc24)C3)CC1 [Example 114, (S)-2-(tert-Butoxy)-2-(2-chloro-4-(4,4-dimethylpiperidin-1-yl)-6-((4,4-dimethylpiperidin-1-yl)methyl)-5-(2-(pyrido[3′,2′:4,5]furo[3,2-d]pyrimidin-4-yl)-1,2,3,4-tetrahydroisoquinolin-6-yl)pyridin-3-yl)acetic Acid] | 0.1 nM |
| Cc1cccc(N2CCc3cc(-c4c(C)nc(C)c([C@H](OC(C)(C)C)C(=O)O)c4N4CCC(C)(C)CC4)ccc3C2)n1 [Example 89, (S)-2-(tert-Butoxy)-2-(4-(4,4-dimethylpiperidin-1-yl)-2,6-dimethyl-5-(2-(6-methylpyridin-2-yl)-1,2,3,4-tetrahydroisoquinolin-6-yl)pyridin-3-yl)acetic Acid] | 3 nM |
